This is an account of results in EP2837626A1, “Indolinone derivatives as GRK5 modulators” (Max-Planck-Gesellschaft zur Förderung der Wissenschaften …, priority 2013, dated 2015).

One test has as its target T1, full length GRK5 (Homo sapiens, UniProt P34947).
T1 construct: 6/2 fold concentrated full length GRK5 (Millipore, #14-714) in reaction buffer is added to each well; purchased Millipore 14-714
Description: IC50 determination of compounds inhibiting GRK5 by ADP Glo Kinase Assay technology (Promega). It counts as biochemical. The settings on record: 20 nM GRK5, 18.7 µM ATP, 10 µM casein, 12 concentrations, triplicates, read-out: GRK5 IC50. Background: ADP-Glo turns the ADP formed in a reaction into a luminescent signal.

In the next test the target is T2, GRK5 (Homo sapiens, UniProt P34947).
T2 construct: purchased Millipore
T2 sequence (P34947 whole entry): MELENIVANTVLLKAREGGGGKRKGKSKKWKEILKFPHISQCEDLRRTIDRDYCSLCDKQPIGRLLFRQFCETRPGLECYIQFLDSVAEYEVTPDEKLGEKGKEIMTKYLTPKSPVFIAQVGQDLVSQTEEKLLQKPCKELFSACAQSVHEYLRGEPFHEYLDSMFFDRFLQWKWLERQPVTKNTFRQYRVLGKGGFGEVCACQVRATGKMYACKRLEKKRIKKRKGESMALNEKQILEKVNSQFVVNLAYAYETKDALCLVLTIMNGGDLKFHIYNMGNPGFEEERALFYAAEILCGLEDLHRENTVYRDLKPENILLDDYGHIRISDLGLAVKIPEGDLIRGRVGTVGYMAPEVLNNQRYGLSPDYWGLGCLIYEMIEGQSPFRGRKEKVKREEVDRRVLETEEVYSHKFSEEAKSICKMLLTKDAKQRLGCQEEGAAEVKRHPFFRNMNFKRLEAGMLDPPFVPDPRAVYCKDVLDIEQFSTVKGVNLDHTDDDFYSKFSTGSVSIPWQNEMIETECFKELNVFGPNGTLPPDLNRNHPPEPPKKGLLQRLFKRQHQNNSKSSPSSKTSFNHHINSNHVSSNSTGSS
Description: IC50 determination of compounds inhibiting GRK5 by Millipore KinaseProfiler (radiometric filtration binding assay). The format is biochemical. Conditions: 2 mg/mL casein, 40 minutes at room temperature. Here is the method: IC50 values are determined by a radiometric based filtration binding assay, namely Millipore KinaseProfiler™. GRK5 is incubated with 8 mM MOPS pH 7.0, 0.2 mM EDTA, 2 mg/mL casein, 10 mM MgAcetate and […] (specific activity approx. 500 cpm/pmol, concentration as required). The reaction is initiated by the addition of the MgATP mix. After incubation for 40 minutes at room temperature, the reaction is stopped by the addition of 3 % phosphoric acid solution. 10 µL of the reaction is then spotted onto a P30 filtermat and washed three times for 5 minutes in 75 mM phosphoric acid and once in methanol prior to drying and scintillation counting.

T1 sequence (P34947 whole entry): as above

Take `CC[C@@H](NC(=O)c1ccc2c(c1)/C(=C/c1[nH]c(C)c(C(=O)N3CCC[C@@H]3CN3CCCC3)c1C)C(=O)N2)c1ccccc1` [Compound 48, (3Z)-3-[(3,5-dimethyl-4-{[(2R)-2-(pyrrolidin-1-ylmethyl)pyrrolidin-1-yl]carbonyl}-1H-pyrrol-2-yl)methylene]-2-oxo-N-[(1R)-1-phenylpropyl]indoline-5-carboxamide]: the IC50 at full length GRK5 and at GRK5 was less than 5 µM each time.
In the case of `CC[C@H](NC(=O)c1ccc2c(c1)/C(=C/c1[nH]c(C)c(C(=O)N3CCC(N4CCN(C)CC4)CC3)c1C)C(=O)N2)c1ccccc1` [Compound 52, (3Z)3-[(3,5-dimethyl-4-{[4-(4-methylpiperazin-1-yl)piperidin-1-yl]carbonyl}-1H-pyrrol-2-yl)methylene]-2-oxo-N-[(1S)-1-phenylpropyl]indoline-5-carboxamide], the IC50 at full length GRK5 and on GRK5 was greater than 30 µM throughout.
In the case of `Cc1[nH]c(/C=C2\C(=O)Nc3ccc(C(=O)N[C@@H](C)c4ccc(F)cc4)cc32)c(C)c1C(=O)N1CCCCC1` [Compound 64, (3Z)-3-{[3,5-dimethyl-4-(piperidin-1-ylcarbonyl)-1H-pyrrol-2-yl]methylene}-N-[(1S)-1-(4-fluorophenyl)ethyl]-2-oxoindoline-5-carboxamide], the IC50 on full length GRK5 and at GRK5 was greater than 30 µM each time.
As for `Cc1[nH]c(/C=C2\C(=O)Nc3ccc(C(=O)N[C@@H](C)c4ccccc4)cc32)c(C)c1C(=O)N1CCCCC1` [Compound 54, (3Z)-3-{[3,5-dimethyl-4-(piperidin-1-ylcarbonyl)-1H-pyrrol-2-yl]methylene}-2-oxo-N-[(1S)-1-phenylethyl]indoline-5-carboxamide], the concentration for half-maximal inhibition (IC50) at full length GRK5 and on GRK5 was greater than 30 µM throughout.
Regarding `Cc1[nH]c(/C=C2\C(=O)Nc3ccc(C(=O)N[C@@H]4CCc5ccccc54)cc32)c(C)c1C(=O)N1CCC[C@@H]1CN1CCCC1` [Compound 30, (3Z)-N-[(1R)-2,3-dihydro-1H-inden-1-yl]-3-[(3,5-dimethyl-4-{[(2R)-2-(pyrrolidin-1-ylmethyl)pyrrolidin-1-yl]carbonyl}-1H-pyrrol-2-yl)methylene]-2-oxoindoline-5-carboxamide], the half-maximal inhibitory concentration (IC50) on full length GRK5 and at GRK5 was 5 to 20 µM throughout.
As for `Cc1ccc([C@@H](C)NC(=O)c2ccc3c(c2)/C(=C/Nc2ccc(CN4CCCCC4)cc2)C(=O)N3)cc1` [Compound 72, (3Z)-N-[(1R)-1-(4-methylphenyl)ethyl]-2-oxo-3-({[4-(piperidin-1-ylmethyl)phenyl]amino}methylene)indoline-5-carboxamide], the concentration for half-maximal inhibition (IC50) at full length GRK5 and at GRK5 was less than 5 µM throughout.
Regarding `CC[C@@H](NC(=O)c1ccc2c(c1)/C(=C/c1[nH]c(C)c(C(=O)N3CCC(N4CCN(C)CC4)CC3)c1C)C(=O)N2)c1ccccc1` [Compound 53, (3Z)-3-[(3,5-dimethyl-4-{[4-(4-methylpiperazin-1-yl)piperidin-1-yl]carbonyl}-1H-pyrrol-2-yl)methylene]-2-oxo-N-[(1R)-1-phenylpropyl]indoline-5-carboxamide], the figures for the IC50 at full length GRK5 and at GRK5 were 5 to 20 µM and less than 5 µM, respectively.
On the same counts, the results for `CC[C@H](NC(=O)c1ccc2c(c1)/C(=C/c1[nH]c(C)c(C(=O)N3CCC[C@H]3CN3CCCC3)c1C)C(=O)N2)c1ccccc1` [Compound 47, (3Z)-3-[(3,5-dimethyl-4-{[(2S)-2-(pyrrolidin-1-ylmethyl)pyrrolidin-1-yl]carbonyl}-1H-pyrrol-2-yl)methylene]-2-oxo-N-[(1S)-1-phenylpropyl]indoline-5-carboxamide] are 5 to 20 µM and 5 to 20 µM.
With `C[C@@H](c1ccccc1)N(C)C(=O)c1ccc2c(c1)/C(=C/Nc1ccc(CN3CCCCC3)cc1)C(=O)N2` [Compound 71, (3Z)-N-methyl-2-oxo-N-[(1S)-1-phenylethyl]-3-({[4-(piperidin-1-ylmethyl)phenyl]amino}methylene)indoline-5-carboxamide], the IC50 on full length GRK5 and at GRK5 was less than 5 µM throughout.
As to `Cc1[nH]c(/C=C2\C(=O)Nc3ccc(C(=O)N[C@@H](C)c4cccc(Cl)c4)cc32)c(C)c1C(=O)N1CCCCC1` [Compound 56, (3Z)-N-[(1S)-1-(3-chlorophenyl)ethyl]-3-{[3,5-dimethyl-4-(piperidin-1-ylcarbonyl)-1H-pyrrol-2-yl]methylene}-2-oxoindoline-5-carboxamide], the concentration for half-maximal inhibition (IC50) on full length GRK5 and on GRK5 was greater than 30 µM in each case.
For `CC[C@@H](NC(=O)c1ccc2c(c1)/C(=C/c1[nH]c(C)c(C(=O)N3CCCCC3)c1C)C(=O)N2)c1ccccc1` [Compound 63, (3Z)-3-{[3,5-dimethyl-4-(piperidin-1-ylcarbonyl)-1H-pyrrol-2-yl]methylene}-2-oxo-N-[(1R)-1-phenylpropyl]indoline-5-carboxamide], the IC50 on full length GRK5 and at GRK5 was less than 5 µM in each case.
Take `CC[C@H](NC(=O)c1ccc2c(c1)/C(=C/c1[nH]c(C)c(C(=O)N3CCCCC3)c1C)C(=O)N2)c1ccccc1` [Compound 57, (3Z)-3-{[3,5-dimethyl-4-(piperidin-1-ylcarbonyl)-1H-pyrrol-2-yl]methylene}-2-oxo-N-[(1S)-1-phenylpropyl]indoline-5-carboxamide]: the IC50 on full length GRK5 and at GRK5 was greater than 30 µM in each case.
In the case of `Cc1[nH]c(/C=C2\C(=O)Nc3ccc(C(=O)N[C@H](C)c4cccc(Cl)c4)cc32)c(C)c1C(=O)N1CCCCC1` [Compound 55, (3Z)-N-[(1R)-1-(3-chlorophenyl)ethyl]-3-{[3,5-dimethyl-4-(piperidin-1-ylcarbonyl)-1H-pyrrol-2-yl]methylene}-2-oxoindoline-5-carboxamide], the IC50 at full length GRK5 and at GRK5 was less than 5 µM each time.

As usually defined, the IC50 is the point on the concentration scale where inhibition reaches its midpoint.
